{
  "source": "PubChem BioAssay AID1259409",
  "about": "(Chemical Carcinogenesis Research Information System (CCRIS), 2018)",
  "origin": "cited, not measured here",
  "system": "rodent chemically induced tumor inhibition, incidence and multiplicity",
  "test": "CCRIS tumor inhibitor studies",
  "note": "Where “and” joins values, the source holds several entries; their conditions need not be identical. Equal values may be shown once.",
  "data": [
    {"compound": "O=c1[nH]c(=O)n([C@H]2C[C@H](O)[C@@H](CO)O2)cc1Br", "values": [
      {"measurement": "tumour outcome (control, treated, inhibition, significance)", "setting": "Carcinogen: DIETHYLNITROSAMINE, 55-18-5, Dose [Inhibitor]: 0, 100 MG/KG INJECTED 4, 24, AND 48 HR AFTER EACH CARCINOGEN EXPOSURE (STUDY DURATION: 6 MO), Route [Inhibitor]: INTRAPERITONEAL, Species: RAT, Strain/Sex: BD6/MALE, Target Tissue: Type of Lesion: ESOPHAGUS: TUMOR, Dose [Carcinogen]: 80 MG/KG 1 WK FOR 7 WK", "result": "10/40 (25%), 11/35 (31%), -24%, not calculated"},
      {"measurement": "tumour outcome (control, treated, inhibition, significance)", "setting": "Carcinogen: DIETHYLNITROSAMINE, 55-18-5, Dose [Inhibitor]: 0, 100 MG/KG INJECTED 4, 24, AND 48 HR AFTER EACH CARCINOGEN EXPOSURE (STUDY DURATION: 6 MO), Route [Inhibitor]: INTRAPERITONEAL, Species: RAT, Strain/Sex: BD6/MALE, Target Tissue: Type of Lesion: LIVER: TUMOR, Dose [Carcinogen]: 80 MG/KG 1/WK FOR 7 WK", "result": "29/40 (73%), 20/35 (57%), 22%, not calculated"}
    ]},
    {"compound": "COc1ccc(O)cc1C(C)(C)C", "values": [
      {"measurement": "tumour outcome (control, treated, inhibition, significance)", "setting": "Carcinogen: BENZO[A]PYRENE, 50-32-8, Dose [Inhibitor]: 0.03 MMOL/G OF DIET DAILY STARTING 7 D BEFORE AND CONTINUING THROUGH 3 D AFTER CARCINOGEN TREATMENT FOLLOWED BY OBSERVAT, Route [Inhibitor]: ORAL, Species: MOUSE, Strain/Sex: ICR/FEMALE, Target Tissue: Type of Lesion: FORESTOMACH: NEOPLASM, Dose [Carcinogen]: 1 MG IN 0.2 ML CORN OIL 2/WK FOR 4 WK, Promoter: NONE USED", "result": "94%, 60%, 36%, p<0.05 and 90%, 65%, 28%, not significant"},
      {"measurement": "tumour outcome (control, treated, inhibition, significance)", "setting": "Carcinogen: CIPROFIBRATE, 52214-84-3, Dose [Inhibitor]: 0.5% IN DIET FOR 60 WK (STUDY DURATION: 60 WK), Route [Inhibitor]: ORAL, Species: RAT, Strain/Sex: F344/MALE, Target Tissue: Type of Lesion: LIVER: TUMOR, Dose [Carcinogen]: 10 MG/KG/BW IN DIET SIMULTANEOUSLY WITH INHIBITOR FOR 60 WK, Promoter: NONE USED", "result": "22/25 (88%), 12/25 (48%), 45%, p<0.005"}
    ]},
    {"compound": "Nc1ncn([C@H]2C[C@H](O)[C@@H](CO)O2)c(=O)n1", "values": [
      {"measurement": "tumour outcome (control, treated, inhibition, significance)", "setting": "Carcinogen: 4-(METHYLNITROSAMINO)-1-(3-PYRIDIYL)-1-BUTANONE, 64091-91-4, Dose [Inhibitor]: 0, 1 MG/KG 3/WK FOR 12 WK THEN 0, 0.5 MG/KG FOR 12 WK BEGINNING 1 WK PRIOR TO CARCINOGEN TREATMENT (STUDY DURATION: 24 W, Dose [Inhibitor]: 0, 1 MG/KG 3/WK FOR 12 WK THEN 0, 0.5 MG/KG FOR 12 WK BEGINNING 1 WK PRIOR TO CARCINOGEN TREATMENT (STUDY DURATION: 24 W, Route [Inhibitor]: INTRAPERITONEAL, Species: MOUSE, Strain/Sex: C3AF1/MALE, Target Tissue: Type of Lesion: LUNG: TUMOR, Dose [Carcinogen]: 3.9 MG/MOUSE (TOTAL DOSE) ADMINISTERED IN TWO WEEKLY DOSES OF 1.9 TO 2 MG, Promoter: NONE USED", "result": "100%, 77%, 23%, not significant"}
    ]},
    {"compound": "CSC[C@H](N)C(=O)O", "values": [
      {"measurement": "tumour outcome (control, treated, inhibition, significance)", "setting": "Carcinogen: 7,12-DIMETHYLBENZ[A]ANTHRACENE, 57-97-6, Dose [Inhibitor]: 0, 0.005 MOL/KG DIET BEGINNING 2 WK PRIOR TO CARCINOGEN AND CONTINUED FOR STUDY DURATION (STUDY DURATION: 25 WK), Route [Inhibitor]: ORAL, Species: RAT, Strain/Sex: CD-1/FEMALE, Target Tissue: Type of Lesion: MAMMARY GLAND: ADENOCARCINOMA, Dose [Carcinogen]: 10 MG ONCE, Promoter: NONE USED", "result": "22/25 (88%), 19/25 (76%), 14%, not significant"},
      {"measurement": "tumour outcome (control, treated, inhibition, significance)", "setting": "Carcinogen: 7,12-DIMETHYLBENZ[A]ANTHRACENE, 57-97-6, Dose [Inhibitor]: 0, 0.015 MOL/KG DIET BEGINNING 1 WK POST CARCINOGEN AND CONTINUED FOR STUDY DURATION (STUDY DURATION: 25 WK), Route [Inhibitor]: ORAL, Species: RAT, Strain/Sex: CD-1/FEMALE, Target Tissue: Type of Lesion: MAMMARY GLAND: ADENOCARCINOMA, Dose [Carcinogen]: 10 MG ONCE, Promoter: NONE USED", "result": "23/30 (77%), 14/30 (47%), 39%, p<0.05"},
      {"measurement": "tumour outcome (control, treated, inhibition, significance)", "setting": "Carcinogen: 7,12-DIMETHYLBENZ[A]ANTHRACENE, 57-97-6, Dose [Inhibitor]: 0, 0.015 MOL/KG DIET BEGINNING 2 WK PRIOR TO CARCINOGEN AND CONTINUED 1 WK POST CARCINOGEN (STUDY DURATION: 25 WK), Route [Inhibitor]: ORAL, Species: RAT, Strain/Sex: CD-1/FEMALE, Target Tissue: Type of Lesion: MAMMARY GLAND: ADENOCARCINOMA, Dose [Carcinogen]: 10 MG ONCE, Promoter: NONE USED", "result": "23/30 (77%), 21/30 (70%), 9%, not significant"},
      {"measurement": "tumour outcome (control, treated, inhibition, significance)", "setting": "Carcinogen: 7,12-DIMETHYLBENZ[A]ANTHRACENE, 57-97-6, Dose [Inhibitor]: 0, 0.015 MOL/KG DIET BEGINNING 2 WK PRIOR TO CARCINOGEN AND CONTINUED FOR STUDY DURATION (STUDY DURATION: 25 WK), Route [Inhibitor]: ORAL, Species: RAT, Strain/Sex: CD-1/FEMALE, Target Tissue: Type of Lesion: MAMMARY GLAND: ADENOCARCINOMA, Dose [Carcinogen]: 10 MG ONCE, Promoter: NONE USED", "result": "22/25 (88%), 13/25 (52%), 41%, p<0.05"}
    ]},
    {"compound": "CO[C@@H]1[C@H](OC(=O)NC(=O)CCl)CC[C@]2(CO2)[C@H]1[C@@]1(C)O[C@@H]1CC=C(C)C", "values": [
      {"measurement": "tumour outcome (control, treated, inhibition, significance)", "setting": "Carcinogen: N-METHYL-N-NITROSOUREA, 684-93-5, Dose [Inhibitor]: 0, 1 UG/ML IN URINE 1/WK FOR 10 WK INSTILLED INTO HETEROTROPICALLY TRANSPLANTED BLADDER BEGINNING 21 WK POST CARCINOGEN, Route [Inhibitor]: INTRAVESICULAR, Species: RAT, Strain/Sex: F344/MALE, Target Tissue: Type of Lesion: BLADDER: TUMOR, Dose [Carcinogen]: 0.25 MG IN 0.5 ML OF 0.9% SALINE INSTILLED INTO HETEROTROPICALLY TRANSPLANTED BLADDER ONCE, Promoter: NONE USED", "result": "24/38 (63%), 9/24 (38%), 40%, p=0.08"},
      {"measurement": "tumour outcome (control, treated, inhibition, significance)", "setting": "Carcinogen: N-METHYL-N-NITROSOUREA, 684-93-5, Dose [Inhibitor]: 0, 1 UG/ML IN URINE 1/WK FOR 27 WK INSTILLED INTO HETEROTROPICALLY TRANSPLANTED BLADDER BEGINNING 4 WK POST CARCINOGEN D, Route [Inhibitor]: INTRAVESICULAR, Species: RAT, Strain/Sex: F344/MALE, Target Tissue: Type of Lesion: BLADDER: TUMOR, Dose [Carcinogen]: 0.25 MG IN 0.5 ML OF 0.9% SALINE INSTILLED INTO HETEROTROPICALLY TRANSPLANTED BLADDER ONCE, Promoter: NONE USED", "result": "24/38 (63%), 14/37 (38%), 40%, p<0.05"}
    ]},
    {"compound": "CC(C)CC(CN[C@@H](CC(C)C)C(N)=O)NC(=O)[C@H](Cc1cnc[nH]1)NC(=O)CNC(=O)[C@@H](NC(=O)C(C)NC(=O)[C@H](Cc1c[nH]c2ccccc12)NC(=O)[C@H](CCC(N)=O)NC(=O)[C@H]1Cc2c([nH]c3ccccc23)CN1)C(C)C", "note": "(some centres not stated)", "values": [
      {"measurement": "tumour outcome (control, treated, inhibition, significance)", "setting": "Carcinogen: N-NITROSOBIS(2-OXOPROPYL)AMINE, 60599-38-4, Dose [Inhibitor]: 0, 5 UG/D FROM OSMOTIC PUMP FOR 2 MO, Route [Inhibitor]: SUBCUTANEOUS IMPLANT, Species: HAMSTER, Strain/Sex: SYRIAN/FEMALE, Target Tissue: Type of Lesion: PANCREAS: ADENOCARCINOMA", "result": "10/11 (91%), 7/11 (64%), 30%, not calculated"},
      {"measurement": "tumour outcome (control, treated, inhibition, significance)", "setting": "Carcinogen: N-NITROSOBIS(2-OXOPROPYL)AMINE, 60599-38-4, Dose [Inhibitor]: 0, 20 UG/D BEGINNING 18 WK POST CARCINOGEN TREATMENT AND CONTINUING FOR 8 WK (STUDY DURATION: 32 WK), Route [Inhibitor]: SUBCUTANEOUS, Species: HAMSTER, Strain/Sex: SYRIAN/FEMALE, Target Tissue: Type of Lesion: PANCREAS: ADENOCARCINOMA, Dose [Carcinogen]: TREATMENT FOR 6 WK (DOSE NOT STATED), Promoter: NONE USED", "result": "12/12 (100%), 9/12 (75%), 25%, not significant"},
      {"measurement": "tumour outcome (control, treated, inhibition, significance)", "setting": "Carcinogen: N-NITROSOBIS(2-OXOPROPYL)AMINE, 60599-38-4, Dose [Inhibitor]: 0, 20 UG/D FROM OSMOTIC PUMP FOR 2 MO, Route [Inhibitor]: SUBCUTANEOUS IMPLANT, Species: HAMSTER, Strain/Sex: SYRIAN/FEMALE, Target Tissue: Type of Lesion: PANCREAS: ADENOCARCINOMA, Promoter: NONE USED", "result": "12/12 (100%), 6/12 (50%), 50%, not calculated"},
      {"measurement": "tumour outcome (control, treated, inhibition, significance)", "setting": "Carcinogen: N-NITROSOBIS(2-OXOPROPYL)AMINE, 60599-38-4, Dose [Inhibitor]: 0, 30 UG/D BEGINNING 18 WK POST CARCINOGEN TREATMENT AND CONTINUING FOR 8 WK (STUDY DURATION: 32 WK), Route [Inhibitor]: SUBCUTANEOUS, Species: HAMSTER, Strain/Sex: SYRIAN/FEMALE, Target Tissue: Type of Lesion: PANCREAS: ADENOCARCINOMA, Dose [Carcinogen]: TREATMENT FOR 6 WK (DOSE NOT STATED), Promoter: NONE USED", "result": "11/12 (92%), 8/12 (67%), 27%, not significant"},
      {"measurement": "tumour outcome (control, treated, inhibition, significance)", "setting": "Carcinogen: N-NITROSOBIS(2-OXOPROPYL)AMINE, 60599-38-4, Dose [Inhibitor]: 0, 30 UG/D FOR 2 MO, Route [Inhibitor]: SUBCUTANEOUS, Species: HAMSTER, Strain/Sex: SYRIAN/FEMALE, Target Tissue: Type of Lesion: PANCREAS: ADENOCARCINOMA", "result": "11/13 (85%), 12/13 (92%), -8%, not calculated"},
      {"measurement": "tumour outcome (control, treated, inhibition, significance)", "setting": "Carcinogen: N-NITROSOBIS(2-OXOPROPYL)AMINE, 60599-38-4, Dose [Inhibitor]: 0, 60 UG/D BEGINNING 18 WK POST CARCINOGEN TREATMENT AND CONTINUING FOR 8 WK (STUDY DURATION: 32 WK), Route [Inhibitor]: SUBCUTANEOUS, Species: HAMSTER, Strain/Sex: SYRIAN/FEMALE, Target Tissue: Type of Lesion: PANCREAS: ADENOCARCINOMA, Dose [Carcinogen]: TREATMENT FOR 6 WK (DOSE NOT STATED), Promoter: NONE USED", "result": "12/12 (100%), 2/12 (17%), 83%, p<0.01"}
    ]}
  ]
}
